In patent US20100063065A1 (Inpharmatica Limited, priority 2005, published 2010) one finds EC50 data, which are given here for 25 molecules.

Counter-ions that a name gives are not always drawn.

For the first assay, the target named is T1, PPARδ (Homo sapiens, UniProt Q03181).
T1 construct: fused to amino acids 147-441 of PPARδ downstream of CMV promoter; expressed in transfected cells; host or cells: HEK293 cells, transiently transfected with pFACMV-PPARδ using Fugene
T1 sequence (Q03181 147-441): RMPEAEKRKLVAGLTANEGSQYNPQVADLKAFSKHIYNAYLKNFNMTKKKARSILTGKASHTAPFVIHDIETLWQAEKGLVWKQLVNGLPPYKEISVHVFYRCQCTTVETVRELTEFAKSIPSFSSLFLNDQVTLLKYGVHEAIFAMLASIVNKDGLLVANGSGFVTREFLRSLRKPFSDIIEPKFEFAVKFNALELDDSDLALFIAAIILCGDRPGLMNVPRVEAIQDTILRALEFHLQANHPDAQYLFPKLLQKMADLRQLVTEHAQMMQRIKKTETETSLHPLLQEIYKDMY
Briefly: Transactivation assay (PPARδ GAL4 assay) in transiently transfected HEK293 cells. The class given is cell-based. The following applies: luciferase reporter, Table 1. An outline of the steps: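 HEK293 cells transiently co-transfected with GAL4 DBD (aa 1-147)–PPARδ (aa 147-441) fusion and 5×GAL4-luciferase reporter, then exposed 24 h to compound (final 0-30 μM) in OptiMEM at 37° C. Luminescence read; activity as percent of GW501516 control, EC50 from sigmoidal dose-response fit.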
Take `CCc1cc(C(=O)c2ccc(OC(F)(F)F)cc2)c(NC(=O)CN[C@H](C(=O)O)C(C)C)s1` [Example 79, (S)-2-({[5-Ethyl-3-(4-trifluoromethoxy-benzoyl)-thiophen-2-ylcarbamoyl]-methyl}-amino)-3-methyl-butyric acid]: the EC50 was less than 100 nM.
`CCc1cc(C(=O)c2ccc(C(F)(F)F)nc2)c(NC(=O)CSCC(=O)O)s1` [Example 57, {[5-Ethyl-3-(6-trifluoromethyl-pyridine-3-carbonyl)-thiophen-2-ylcarbamoyl]-methylsulfanyl}-acetic acid]: the EC50 lay within 1000 to 30000 nM.
`CCc1cc(C(=O)c2ccc(OC(F)(F)F)cc2)c(NC(=O)c2ccc(OC(C)(C)C(=O)O)cc2)s1` [Example 102, 2-{4-[5-Ethyl-3-(4-trifluoromethoxy-benzoyl)-thiophen-2-ylcarbamoyl]-phenoxy}-2-methyl-propionic acid] yielded an EC50 of 100 to 1000 nM.
Still for that read-out and setting: the same measure for `CCc1cc(C(=O)c2ccc(OC)c(OC)c2)c(NC(=O)CSCC(=O)O)s1` [Example 49, {[3-(3,4-Dimethoxybenzoyl)-5-ethyl-thiophen-2-ylcarbamoyl]-methylsulfanyl}-acetic acid]: 1000 to 30000 nM; for `CCc1cc(C(=O)c2ccccc2)c(NC(=O)CC(C)(C)CC(=O)O)s1` [Example 16, 4-(3-Benzoyl-5-ethyl-thiophen-2-ylcarbamoyl)-3,3-dimethyl-butyric acid]: 1000 to 30000 nM; for `CCc1cc(C(=O)c2ccc(Cl)cc2)c(NC(=O)C(C)N(C)CC(=O)O)s1` (stereo not shown) [Example 87, ({1-[3-(4-Chloro-benzoyl)-5-ethyl-thiophen-2-ylcarbamoyl]-ethyl}-methyl-amino)-acetic acid]: 100 to 1000 nM.
On the same count and under the same terms, to `CCc1cc(C(=O)c2ccc(-c3ccc(C(F)(F)F)cc3)cc2)c(NC(=O)CSCC(=O)O)s1` [Example 38, {[5-Ethyl-3-(4′-trifluoromethyl-biphenyl-4-carbonyl)-thiophen-2-ylcarbamoyl]-methylsulfanyl}-acetic acid] belongs less than 100 nM; to `CCc1cc(C(=O)c2ccc(OC)cc2)c(NC(=O)CC2(CC(=O)O)CCCC2)s1` [Example 6, (1-{[5-Ethyl-3-(4-methoxy-benzoyl)-thiophen-2-ylcarbamoyl]-methyl}-cyclopentyl)-acetic acid], 1000 to 30000 nM.
Still for that read-out and setting: to `CCc1cc(C(=O)c2ccc(OC)cc2)c(NC(=O)CSc2cccc(OCC(=O)O)c2)s1` [Example 88, (3-{[5-Ethyl-3-(4-methoxy-benzoyl)-thiophen-2-ylcarbamoyl]-methylsulfanyl}-phenoxy)-acetic acid] belongs 1000 to 30000 nM.
In turn, `CCc1cc(C(=O)c2ccc(C)cc2)c(NC(=O)CSCC(=O)O)s1` [Example 8, {[5-Ethyl-3-(4-methyl-benzoyl)-thiophen-2-ylcarbamoyl]-methylsulfanyl}-acetic acid] returned a 50% effective concentration (EC50) of 100 to 1000 nM.
Still for that read-out and setting: the same measure for `CCc1cc(C(=O)c2ccc(OC(F)(F)F)cc2)c(NC(=O)CSc2ccc(OC(C)(C)C(=O)O)cc2)s1` [Example 95, 2-(4-{[5-Ethyl-3-(4-trifluoromethoxy-benzoyl)-thiophen-2-ylcarbamoyl]-methylsulfanyl}-phenoxy)-2-methyl-propionic acid]: 100 to 1000 nM.
Molecule `CCc1cc(C(=O)c2ccc(Cl)c(Cl)c2)c(NC(=O)CC(C)(C)CC(=O)O)s1` [Example 30, 4-[3-(3,4-Dichloro-benzoyl)-5-ethyl-thiophen-2-ylcarbamoyl]-3,3-dimethyl-butyric acid] came in with a concentration for a half-maximal effect (EC50) of 1000 to 30000 nM.
On the same count and under the same terms, the same measure for `COc1ccc(C(=O)c2cc(C(C)C)sc2NC(=O)CSCC(=O)O)cc1` [Example 62, {[5-Isopropyl-3-(4-methoxy-benzoyl)-thiophen-2-ylcarbamoyl]-methylsulfanyl}-acetic acid]: 1000 to 30000 nM.

Still in this assay, the particulars now being: luciferase reporter, Table 2.
For `CCc1cc(C(=O)c2ccc(OC(F)(F)F)cc2)c(NC(=O)C(CC)N2CCC[C@@H]2C(=O)O)s1` (stereo partly drawn) [Example 120, (R)-1-{1-[5-Ethyl-3-(4-trifluoromethoxy-benzoyl)-thiophen-2-ylcarbamoyl]-propyl}-pyrrolidine-2-carboxylic acid], the EC50 is less than 100 nM.
On the same count and under the same terms, the same measure for `CCc1cc(C(=O)c2ccc(OC(F)(F)F)cc2)c(NC(=O)CN2CCC(C(=O)O)C2)s1` (stereo not shown) [Example 162, 1-{[5-Ethyl-3-(4-trifluoromethoxy-benzoyl)-thiophen-2-ylcarbamoyl]-methyl}-pyrrolidine-3-carboxylic acid]: 100 to 1000 nM; for `CCc1cc(C(=O)c2ccc(OC(F)(F)F)cc2)c(NC(=O)CN2CCC[C@]2(C)C(=O)O)s1` [Example 172, (R)-1-{[5-Ethyl-3-(4-trifluoromethoxy-benzoyl)-thiophen-2-ylcarbamoyl]-methyl}-2-methyl-pyrrolidine-2-carboxylic acid]: 100 to 1000 nM.
On the same count and under the same terms, to `CCc1cc(C(=O)c2ccc(OC(F)(F)F)cc2)c(NC(=O)[C@H](C)SCC(=O)O)s1` [Example 195, {(S)-1-[5-Ethyl-3-(4-trifluoromethoxy-benzoyl)-thiophen-2-ylcarbamoyl]-ethylsulfanyl}-acetic acid] belongs less than 100 nM; to `CCc1cc(C(=O)c2ccc(OC(F)(F)F)cc2)c(NC(=O)C(C)(C)SCC(=O)O)s1` [Example 107, {1-[5-Ethyl-3-(4-trifluoromethoxy-benzoyl)-thiophen-2-ylcarbamoyl]-1-methyl-ethylsulfanyl}-acetic acid], 100 to 1000 nM; to `CCc1cc(C(=O)c2ccc(OC(F)(F)F)c(Cl)c2)c(NC(=O)CSCC(=O)O)s1` [Example 142, {[3-(3-Chloro-4-trifluoromethoxy-benzoyl)-5-ethyl-thiophen-2-ylcarbamoyl]-methylsulfanyl}-acetic acid], less than 100 nM.
In the case of `CCc1cc(C(=O)c2ccc(OC(F)(F)F)cc2)c(NC(=O)C(C)SCC(=O)O)s1` (stereo not shown) [Example 106, {1-[5-Ethyl-3-(4-trifluoromethoxy-benzoyl)-thiophen-2-ylcarbamoyl]-ethylsulfanyl}-acetic acid], the EC50 is less than 100 nM.
Same read-out and setting: the same measure for `O=C(CN1[C@@H](C(=O)O)CC[C@@H]1c1ccccc1)Nc1sc(Cl)cc1C(=O)c1ccc(OC(F)(F)F)cc1` [Example 188, (2R,5R)-1-{[5-Chloro-3-(4-trifluoromethoxy-benzoyl)-thiophen-2-ylcarbamoyl]-methyl}-5-phenyl-pyrrolidine-2-carboxylic acid hydrochloride]: less than 100 nM; for `CCc1cc(C(=O)c2ccc(OC(F)(F)F)cc2)c(NC(=O)CCCSCC(=O)O)s1` [Example 105, {3-[5-Ethyl-3-(4-trifluoromethoxy-benzoyl)-thiophen-2-ylcarbamoyl]-propylsulfanyl}-acetic acid]: 100 to 1000 nM; for `CCc1cc(C(=O)c2ccc(OC(F)(F)F)cc2)c(NC(=O)CSC(C(=O)O)c2ccccc2)s1` (stereo not shown) [Example 128, {[5-Ethyl-3-(4-trifluoromethoxy-benzoyl)-thiophen-2-ylcarbamoyl]-methylsulfanyl}-phenyl-acetic acid]: 100 to 1000 nM.
Still for that read-out and setting: the same measure for `CCc1cc(C(=O)c2ccc(OC(F)(F)F)cc2)c(NC(=O)CN(C)[C@@H](C)C(=O)O)s1` [Example 198, (S)-2-({[5-Ethyl-3-(4-trifluoromethoxy-benzoyl)-thiophen-2-ylcarbamoyl]-methyl}-methyl-amino)-propionic acid]: less than 100 nM.
The molecule `CCc1cc(C(=O)c2ccc(OC(F)(F)F)cc2)c(NC(=O)CSC(C)C(=O)O)s1` (stereo not shown) [Example 112, 2-{[5-Ethyl-3-(4-trifluoromethoxy-benzoyl)-thiophen-2-ylcarbamoyl]-methylsulfanyl}-propionic acid] registered an EC50 of less than 100 nM.

The term EC50 denotes the concentration needed to bring the measured effect to its halfway point. High values mean weaker potency, low ones greater potency.
